Like-named read-outs stand apart in the source and are kept apart here.
What was measured:
pancreatic cancer = experiment: [18F]FP-R01-MG-F2 vs [18F]FDG PET/CT in a pancreatic cancer patient (Stanford); conditions: FDG, 1 hr
Description: The line was flushed with at least 10 ml normal saline after injection. • Blood samples for blood time activity measurements were taken at 1, 3, 5, and 10 min after tracer administration and then at 30-minute intervals for up to 3 h after tracer injection. The counts in whole blood and plasma were measured by gamma counter (Perkin Elmer Wizard 1470). […] The scan was performed over the abdominal region to include the pancreas. Attenuation correction was employed via CT (120 kV, 10 mA). […] The scan was performed over the chest region. Attenuation correction was employed via CT (120 kV, 10 mA). • Static total-body (vertex-to-toe) PET/CT scans were acquired at 60 min and 120 min post injection. CT was performed at 120 kV; it was dose-modulated based on body habitus with current ranging from 10-105 mA for the 60-minute scan. […] EKG data was analyzed to assess changes in overall rhythm of the heart. • On the day of the study, participants were asked to void frequently to reduce radiation exposure. Urine samples were collected at prior to tracer administration (baseline), prior to the static PE scans, at the end of the study day 1, and at the follow up visits 1 day and 7 days after tracer administration.
Upon co-registration of the PET and CT images, the CT images were used to determine regions of interest for the organs or tissues reported in the manuscript. These ROIs were applied to the PET images of the brain, pituitary gland, breast, lower and upper large intestine, small intestine, stomach, pancreas, heart wall, liver, lung, muscle, red marrow, bone, skin, and thyroid gland. For high uptake organs such as the kidneys, bladder and for the whole body, threshold-based segmentation of PET images were used to determine a close-fitting ROI around the entire organ or whole body. In order to determine accuracy, these PET-derived ROIs were compared to the CT overlay for a close match.

human integrin αvβ6 = target: T1, human integrin αvβ6 (Homo sapiens, UniProt P06756+P18564, DEL708-788); experiment: Competition binding (IC50) against yeast surface-displayed R01-MG; conditions: for binding affinity for integrin avb6 in competition binding (IC50), in words: compete with R01-MG displayed on yeast
T1 construct: purchased R&D Systems

Sprague Dawley rats = assay type: in vivo, rat
Description: Groups of 5 animals sex^−1 were sacrificed on Study Days 3 (48 h) and 15 for evaluation of clinical pathology and organ toxicity. […] Parameters evaluated for test article effect included survival, clinical observations, body weight, body weight gain, clinical pathology, gross pathology, organ weights, and microscopic pathology.
The purpose of this study was to evaluate the toxicity of [19F]FP-R 1-MG-F2 following a single […]
intra ven ous dose in rats. This study consisted of one test article treatment group of ten male and ten fem ale Spr ague-Dawley rats dosed with [19F]FP-R 1-MG-F2 (note - sm all m olecule […]
[…] An additio na l grou p of ten m ales and ten females received the vehicle, 10% Ethanol in Sterile Saline, and ser ved as the control. All rats received a dose volum e of 5 m L/k g. T he rats were dosed intravenous ly onc e on Stud y Da y 1.
Five m ale and five fem ale rats from each group were bled on Stud y Da y 3 and the rem aining rats were bled on Stud y D ay 15. All an im als were e u than ized a nd necrops ied f ollo wing b loo d collect ion . Param eters evalu ated f or test art icle ef f ect inclu ded sur viva l, clin ica l obser vat ions, bod y weight, bod y weight gain, clinical patholog y, gross pathology, organ weights, and […]
the study. No abnorm al findings were indicated dur ing mortality checks (cagesides) or hands-on […]
be related to treatm ent related.
Under the conditions of this study, there were no treatm ent related findings in Sprague Dawley rats three or fifteen da ys after a single intravenous dose of [19F]FP-R01-MG-F2 at 1.10 mg/kg. […]
intravenous dose in rats. […]
The test article (TA), [19F]FP-R 1-MG-F2, was received from the Sponsor on Aug ust 25, […]
2014, described as a wh ite po wd er . The test article was stored frozen in a g lass vial.
Copies of the Test Artic le Data Sheets are included in Appendix D.
Note: Test article nam e as per the Qualit y Control Record (Appendix D) is listed as FP-GLY-36-Gly-NH2, which represents the chem ical structure. T he test article is referred to b y the comm ercial nam e provided b y the client ([19F]FP-R 1-MG-F2) throughout this report and […]
Name Lot No. Supplier Purit y
The vehicle used in this study was 10% Ethanol in Sterile Saline (0.9% sodium chloride, USP). The vehic le com ponents were purchased commercially b y SoBran and stored at room tem perature in accordance with the m anufacturer instructions. Copies of the Certificate of Anal yses for the lots of 10% Ethanol and Sterile Saline used are included in […]
Name Lot No. Supplier Concentration
Etha no l (20 0 pro of ), USP SHBB0 212 V Sigm a Aldrich; Sa int 99.87% […]
0.9% Sod ium Chlor ide, USP C886374 Baxter; C le ve lan d, 0.888% […]
The 0.22 mg/mL test article solution was pr epar ed b y adding 40 mL of 10% ethanol solution (vehicle control) to 8.8 mg of the test article, mixed gently, and then filtered using a 2µ sterile syringe filter. The pH of the 10% ethanol solution wa s adj us ted us ing HCl and NaO H to achieve a pH of 7.4. The vehicle was passed through a 2µ sterile syringe filter af t er pH […]
On October 2, 2014, 21 male and 21 female Sprague-Dawle y rats were obtained from Harlan, Frederick , MD. The supplier verified that the anim als were free of specific active inf ectious dise ases prior to arriva l at the SoBra n f acilit y. At init iat ion of dosing , the m ale and fem ale rats were 7 week s of age, (Date of Birth: 8/15/14). At ra ndom iza tion th e bod y weights of the rats used on stud y ranged from 199.05 to 218.61 gram s (m ales) […]
Rats were chosen for use in this stud y since the y are considered an acceptable anim al model for the rodent species for acute toxicity tests prior to clinical use.
The animals were housed following the specifications recommended in The Guide for the […]

[1] = Day 3, Group 2 males, p < 0.05, within historical range

T1 sequence (P06756 31-992 limits assumed, stated change not applied): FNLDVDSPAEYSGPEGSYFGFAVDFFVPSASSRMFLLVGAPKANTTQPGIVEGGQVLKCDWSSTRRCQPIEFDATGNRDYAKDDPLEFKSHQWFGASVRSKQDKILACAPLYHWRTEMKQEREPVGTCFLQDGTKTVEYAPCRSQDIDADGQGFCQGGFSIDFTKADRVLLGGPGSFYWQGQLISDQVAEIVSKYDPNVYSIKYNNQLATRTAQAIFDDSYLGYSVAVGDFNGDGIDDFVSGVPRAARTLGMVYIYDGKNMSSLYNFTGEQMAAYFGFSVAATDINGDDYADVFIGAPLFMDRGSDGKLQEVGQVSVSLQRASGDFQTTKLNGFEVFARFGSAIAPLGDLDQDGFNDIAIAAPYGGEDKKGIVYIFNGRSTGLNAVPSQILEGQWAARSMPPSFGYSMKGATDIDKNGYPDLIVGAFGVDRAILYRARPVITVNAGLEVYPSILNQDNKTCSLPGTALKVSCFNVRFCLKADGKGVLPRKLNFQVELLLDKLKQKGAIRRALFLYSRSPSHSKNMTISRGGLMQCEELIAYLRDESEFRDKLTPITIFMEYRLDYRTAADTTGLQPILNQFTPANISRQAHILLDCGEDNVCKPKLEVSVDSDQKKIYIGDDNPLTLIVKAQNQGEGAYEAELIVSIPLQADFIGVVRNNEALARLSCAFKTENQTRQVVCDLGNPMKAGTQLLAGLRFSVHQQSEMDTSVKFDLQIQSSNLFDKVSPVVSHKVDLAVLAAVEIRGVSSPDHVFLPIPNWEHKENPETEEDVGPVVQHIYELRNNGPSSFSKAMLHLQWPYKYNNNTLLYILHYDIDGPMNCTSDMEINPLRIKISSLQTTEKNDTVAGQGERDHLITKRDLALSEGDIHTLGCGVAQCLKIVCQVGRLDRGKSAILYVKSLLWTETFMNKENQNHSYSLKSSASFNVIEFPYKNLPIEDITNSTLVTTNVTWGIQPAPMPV
T1 sequence (P18564 22-707 limits assumed, stated change not applied): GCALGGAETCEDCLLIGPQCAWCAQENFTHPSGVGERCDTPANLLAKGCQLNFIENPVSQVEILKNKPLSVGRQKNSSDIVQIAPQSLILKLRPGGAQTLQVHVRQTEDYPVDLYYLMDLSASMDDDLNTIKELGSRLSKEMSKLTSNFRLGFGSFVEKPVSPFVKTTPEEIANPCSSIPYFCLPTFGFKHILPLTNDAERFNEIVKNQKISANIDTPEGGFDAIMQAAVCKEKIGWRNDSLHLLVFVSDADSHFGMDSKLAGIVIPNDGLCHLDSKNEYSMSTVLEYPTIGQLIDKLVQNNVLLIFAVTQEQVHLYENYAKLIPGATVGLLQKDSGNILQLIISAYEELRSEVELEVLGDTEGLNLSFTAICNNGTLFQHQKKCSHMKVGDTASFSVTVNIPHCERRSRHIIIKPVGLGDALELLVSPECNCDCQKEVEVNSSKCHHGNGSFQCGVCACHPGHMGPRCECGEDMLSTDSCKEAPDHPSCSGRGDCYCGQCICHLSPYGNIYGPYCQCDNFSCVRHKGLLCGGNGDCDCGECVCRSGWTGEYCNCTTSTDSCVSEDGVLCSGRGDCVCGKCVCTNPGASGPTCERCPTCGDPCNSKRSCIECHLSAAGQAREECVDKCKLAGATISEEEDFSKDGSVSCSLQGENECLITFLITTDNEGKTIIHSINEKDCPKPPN

SMILES: OC[C@H]1O[C@@H](O)[C@H]([18F])[C@@H](O)[C@@H]1O [FDG]
- Bl, PET uptake (pancreatic cancer): 21.1
- Bn, PET uptake (pancreatic cancer): 1.4
- Br, PET uptake (pancreatic cancer): 8.1
- Brs, PET uptake (pancreatic cancer): 0.32
- CA, PET uptake (pancreatic cancer): 4.1
- HW, PET uptake (pancreatic cancer): 2
- LLI, PET uptake (pancreatic cancer): 2.2
- Ln, PET uptake (pancreatic cancer): 0.59
- Lv, PET uptake (pancreatic cancer): 2.9
- Ms, PET uptake (pancreatic cancer): 0.53
- RM, PET uptake (pancreatic cancer): 0.29
- SI, PET uptake (pancreatic cancer): 2.5
- Sk, PET uptake (pancreatic cancer): 0.38
- Sp, PET uptake (pancreatic cancer): 2.9
- St, PET uptake (pancreatic cancer): 0.16
- Tr, PET uptake (pancreatic cancer): 0.9
- ULI, PET uptake (pancreatic cancer): 1.8
- WB, PET uptake (pancreatic cancer): 0.79

SMILES: CC[C@H](C)[C@@H]1NC(=O)[C@@H](NC(=O)CNC(=O)C(C)F)CSSC[C@@H]2NC(=O)[C@H](C)NC(=O)CNC(=O)[C@@H]3CCCN3C(=O)[C@@H]3CSSC[C@@H](C(=O)NCC(N)=O)NC(=O)[C@H](Cc4ccc(O)cc4)NC(=O)CNC(=O)[C@H](CC(N)=O)NC(=O)CNC(=O)[C@H](CCCNC(=N)N)NC(=O)[C@H](CSSC[C@H](NC(=O)[C@H](CCCNC(=N)N)NC(=O)[C@H](Cc4ccccc4)NC(=O)[C@H](CC(C)C)NC(=O)[C@H](CC(C)C)NC(=O)[C@H]([C@@H](C)O)NC(=O)CNC(=O)[C@H](CC(C)C)NC(=O)[C@H](CC(=O)O)NC(=O)[C@H]([C@@H](C)O)NC(=O)[C@H](CCCNC(=N)N)NC(=O)CNC(=O)[C@H](CC(N)=O)NC(=O)[C@H](CC(C)C)NC1=O)C(=O)N[C@@H](CCCNC(=N)N)C(=O)N[C@@H](CCCNC(=N)N)C(=O)N[C@@H](CC(=O)O)C(=O)N[C@@H](CO)C(=O)N[C@@H](CC(=O)O)C(=O)N3)NC(=O)[C@H]([C@@H](C)CC)NC2=O (stereo partly shown) [[^19F]FP-R01-MG-F1]
- binding affinity for integrin avb6 in competition binding (IC50), in words (human integrin αvβ6): subnanomolar

SMILES: CC[C@H](C)[C@@H]1NC(=O)[C@@H](NC(=O)CNC(=O)[C@@H](C)F)CSSC[C@@H]2NC(=O)[C@H](C)NC(=O)CNC(=O)[C@@H]3CCCN3C(=O)[C@@H]3CSSC[C@@H](C(=O)NCC(N)=O)NC(=O)[C@H](Cc4ccc(O)cc4)NC(=O)CNC(=O)[C@H](CC(N)=O)NC(=O)CNC(=O)[C@H](CCCNC(=N)N)NC(=O)[C@H](CSSC[C@H](NC(=O)[C@H](CCCNC(=N)N)NC(=O)[C@H](Cc4ccccc4)NC(=O)[C@H](CC(C)C)NC(=O)[C@H](CC(C)C)NC(=O)[C@H]([C@@H](C)O)NC(=O)CNC(=O)[C@H](CC(C)C)NC(=O)[C@H](CC(=O)O)NC(=O)[C@H]([C@@H](C)O)NC(=O)[C@H](CCCNC(=N)N)NC(=O)CNC(=O)[C@H](CC(N)=O)NC(=O)[C@H](CC(C)C)NC1=O)C(=O)N[C@@H](CCCNC(=N)N)C(=O)N[C@@H](CCCNC(=N)N)C(=O)N[C@@H](CC(=O)O)C(=O)N[C@@H](CO)C(=O)N[C@@H](CC(=O)O)C(=O)N3)NC(=O)[C@H]([C@@H](C)CC)NC2=O [[^19F]FP-R01-MG-F2]
- IC50 (human integrin αvβ6): 0.56 ± 0.46 nM
- binding affinity for integrin avb6 in competition binding (IC50), in words (human integrin αvβ6): subnanomolar
- Organ weight, Brain, mean (Sprague Dawley rats; Day 3, Group 2 females): 1.5766
- Organ weight, Eyes with optic nerve, mean (Sprague Dawley rats; Day 3, Group 2 females): 0.2641
- Organ weight, Heart, mean (Sprague Dawley rats; Day 3, Group 2 females): 0.6540
- Organ weight, Kidneys, mean (Sprague Dawley rats; Day 3, Group 2 females): 1.2874
- Organ weight, Liver, mean (Sprague Dawley rats; Day 3, Group 2 females): 5.9521
- Organ weight, Lungs, mean (Sprague Dawley rats; Day 3, Group 2 females): 1.5304
- Organ weight, Ovaries, mean (Sprague Dawley rats; Day 3, Group 2 females): 0.1595
- Organ weight, Spleen, mean (Sprague Dawley rats; Day 3, Group 2 females): 0.4955
- Organ weight, Thyroid (both lobes with parathyroid), mean (Sprague Dawley rats; Day 3, Group 2 females): 0.0479
- Organ weight, Brain, mean (Sprague Dawley rats; Day 3, Group 2 males): 1.7081
- Organ weight, Eyes with optic nerve, mean (Sprague Dawley rats; Day 3, Group 2 males): 0.3216
- Organ weight, Heart, mean (Sprague Dawley rats; Day 3, Group 2 males): 0.9438
- Organ weight, Kidneys, mean (Sprague Dawley rats; Day 3, Group 2 males): 1.7156
- Organ weight, Liver, mean (Sprague Dawley rats; Day 3, Group 2 males): 8.4988
- Organ weight, Lungs, mean (Sprague Dawley rats; Day 3, Group 2 males): 1.6368
- Organ weight, Spleen, mean (Sprague Dawley rats; Day 3, Group 2 males): 0.6601
- Organ weight, Testes, mean (Sprague Dawley rats; Day 3, Group 2 males): 2.9952
- Organ weight, Thyroid (both lobes with parathyroid), mean (Sprague Dawley rats; Day 3, Group 2 males): 0.0299
- alkaline phosphatase (ALP) vs control (Sprague Dawley rats; Day 3, Group 2 males, p < 0.05, not believed biologically meaningful): increase
- absolute large unstained cell counts (ALUC) vs control (Sprague Dawley rats; [1]): increased
- absolute lymphocyte counts (ALY) vs control (Sprague Dawley rats; [1]): increased
- absolute monocyte counts (AMO) vs control (Sprague Dawley rats; [1]): increased
- white blood cell counts (WBC) vs control (Sprague Dawley rats; [1]): increased
- Organ weight, Brain, mean (Sprague Dawley rats; Day 15, Group 2 females): 1.5915
- Organ weight, Eyes with optic nerve, mean (Sprague Dawley rats; Day 15, Group 2 females): 0.2965
- Organ weight, Heart, mean (Sprague Dawley rats; Day 15, Group 2 females): 0.7068
- Organ weight, Kidneys, mean (Sprague Dawley rats; Day 15, Group 2 females): 1.3894
- Organ weight, Liver, mean (Sprague Dawley rats; Day 15, Group 2 females): 7.3444
- Organ weight, Lungs, mean (Sprague Dawley rats; Day 15, Group 2 females): 1.5063
- Organ weight, Ovaries, mean (Sprague Dawley rats; Day 15, Group 2 females): 0.1569
- Organ weight, Spleen, mean (Sprague Dawley rats; Day 15, Group 2 females): 0.5718
- Organ weight, Thyroid (both lobes with parathyroid), mean (Sprague Dawley rats; Day 15, Group 2 females): 0.0355
- activated partial thromboplastin time vs control (Sprague Dawley rats; Day 15, Group 2 females, p < 0.05, within historical range): decrease
- Organ weight, Brain, mean (Sprague Dawley rats; Day 15, Group 2 males): 1.5942
- Organ weight, Eyes with optic nerve, mean (Sprague Dawley rats; Day 15, Group 2 males): 0.3204
- Organ weight, Heart, mean (Sprague Dawley rats; Day 15, Group 2 males): 1.0593
- Organ weight, Kidneys, mean (Sprague Dawley rats; Day 15, Group 2 males): 2.1137
- Organ weight, Liver, mean (Sprague Dawley rats; Day 15, Group 2 males): 11.2236
- Organ weight, Lungs, mean (Sprague Dawley rats; Day 15, Group 2 males): 2.0208
- Organ weight, Spleen, mean (Sprague Dawley rats; Day 15, Group 2 males): 0.6991
- Organ weight, Testes, mean (Sprague Dawley rats; Day 15, Group 2 males): 3.5798
- Organ weight, Thyroid (both lobes with parathyroid), mean (Sprague Dawley rats; Day 15, Group 2 males): 0.0238
- mean corpuscular hemoglobin (MCH) vs control (Sprague Dawley rats; Day 15, Group 2 males, p < 0.05, within historical range): increase
- alanine aminotransferase (ALT) vs control (Sprague Dawley rats; Days 3 and 15, Group 2 males, p < 0.05, not believed biologically meaningful): elevated
- organ weights and microscopic pathology findings (Sprague Dawley rats; […] single i.v.): No treatm ent-related findings
- bodyweights of treated females on Day 3 vs control (Sprague Dawley rats; p < 0.05, judged not treatment related): significant increase
